For assay [1], the system named is 5′-biotinylated dsDNA oligomer (DNA, duplex) TGTAATCGTAGGTTGGTCCCATCACCCACC/GGTGGGTGATGGGACCAACCTACGATTACA
The experiment in a line: SPR biosensor kinetics, immobilised DNA. The following applies: PBS buffer; monoexponential fit, single site. A general note: In SPR one partner is held on a chip, and binding of the other changes the refractive index at the surface.

Assay [2] deals with A2780cis cisplatin-resistant ovarian cancer cells. The experiment in a line: MTT cytotoxicity assay, A2780cis cells. The format is cell-based, human. The following applies: 72 h exposure, mean ± SD of three experiments. How it is done:
(§1) The stability of [1]-Cl-[4]-Cl was evaluated in aqueous phosphate-buffered solution (PBS, pH 7.4) using UV–visible spectroscopy. […] The cytotoxicity of the compounds was measured according to a standard MTT assay against human breast cancer (MCF7 and MCF7CR) and ovarian cancer (A2780 and A2780cis) cell lines, and also nontumorigenic MCF10A and human embryonic kidney HEK293T cells (Table ).
(§2) All cell lines were grown in a humidified 5% CO2 environment at 37 °C in dedicated media. Growth media comprised minimum essential medium (MEM) supplemented with 10% FBS, 1% sodium pyruvate, antibiotics, and antimycotic agents for MCF7. MCF10A cells were cultured in a DMEM/F12 Ham’s mixture supplemented with 5% equine serum, 20 ng/mL EGF, 10 μg/mL insulin, […], antibiotics, and antimycotics. MCF7-CR cells were grown in minimum essential medium (MEM), 10% FBS supplemented with 0.1 mg/mL cisplatin, sodium pyruvate, antibiotics, and antimycotics. A2780 and A2780cis cells were cultured in RPMI 1640 GlutaMAX, and HEK293T cells were cultured in DMEM GlutaMAX medium containing 10% heat-inactivated FBS and antibiotics. The effect exerted on cell viability by the compounds was determined using the 3-(4,5-dimethylthiazol-2-yl)-2,5-diphenyltetrazolium bromide (MTT) assay. After individual treatments with 0–100 μM of the compound for 72 h, MTT was added to the culture media at a final concentration of 0.5 mg/mL and incubated for 2 h at 37 °C. Cisplatin was used as a positive control. The medium was replaced with 100 μL of DMSO, and after 10 min, the optical density was recorded at 550 nm on a microplate reader. At least six cultures were used for each data point. Chemicals (Merck-Sigma, Milan, Italy) and plasticware (Corning, Milan, Italy) were cell culture grade.
(In general: Tetrazolium dyes change colour on reduction, which living cells bring about.)

Assay [3] has as its system HEK293T human embryonic kidney cells. The assay can be described thus: MTT cytotoxicity assay, HEK293T cells. Type of assay: cell-based. The following applies: 72 h exposure, mean ± SD of three experiments. The method, then:
as §1, §2

Assay [4] has as its system A2780 human ovarian carcinoma cells. The assay can be described thus: MTT cytotoxicity assay, A2780 cells. The format is cell-based. The following applies: MTT, 72 h exposure, mean ± SD of three experiments. How it is done: as §1, §2
The test system of assay [5] is MCF7-CR cisplatin-resistant breast cancer cells. The experiment in a line: MTT cytotoxicity assay, MCF7CR cells. The following applies: 72 h exposure, mean ± SD of three experiments. Type of assay: cell-based, human. How it is done:
as §1, §2

Assay [6] deals with MCF7 human breast adenocarcinoma cells. The assay can be described thus: MTT cytotoxicity assay, MCF7 cells. Type of assay: cell-based. The following applies: MTT, 72 h exposure, mean ± SD of three experiments. How it is done:
as §1, §2

For orientation: KD means a measure of binding affinity in units of concentration. Low readings indicate higher affinity, high ones lower affinity. Molecule `COc1cc(/C=C/c2cc(/C=C/c3ccc(O)c(OC)c3)n(-c3ccccn3)n2)ccc1O` had a KD in assay [1] of 4.5 ± 2.7 µM.
On the same count and under the same terms, the figure for `COc1cc(/C=C/c2cc(/C=C/c3ccc(O)c(OC)c3)n(-c3ccccn3)n2)ccc1O.Cc1ccc(C(C)C)cc1.[Cl-].[Os+2]` is 4.2 ± 1.8 µM; for `COc1cc(/C=C/c2cc(/C=C/c3ccc(O)c(OC)c3)n(-c3ccccn3)n2)ccc1O.Cc1ccc(C(C)C)cc1.[Cl-].[Ru+2]` it is 0.29 ± 0.14 µM; for `Cc1ccc(C(C)C)cc1.Oc1ccc(/C=C/c2cc(/C=C/c3ccc(O)cc3)n(-c3ccccn3)n2)cc1.[Cl-].[Os+2]` it is 39.2 ± 17.0 µM.
In the case of `Cc1ccc(C(C)C)cc1.Oc1ccc(/C=C/c2cc(/C=C/c3ccc(O)cc3)n(-c3ccccn3)n2)cc1.[Cl-].[Ru+2]`, the KD in assay [1] came to 2.2 ± 1.5 µM.
Molecule `Oc1ccc(/C=C/c2cc(/C=C/c3ccc(O)cc3)n(-c3ccccn3)n2)cc1` came in with a KD in assay [1] of 17.0 ± 7.3 µM.
For orientation: IC50 means the concentration at which inhibition is half-maximal. Turning to `N.N.[Cl][Pt][Cl]` [Cisplatin, reference compound], the IC50 was found to be 7 ± 1 µM in assay [2]; 2.8 ± 0.5 µM in assay [3]; 0.25 ± 0.02 µM in assay [4]; 49.1 ± 7 µM in assay [5]; 4.2 ± 2.3 µM in assay [6].

These data come from publication PMC12153055 (Organometallics, 2025).
